Measured values as given in patent US4122184A, “Benzimidazole insecticides” (priority 1977, dated 1978).

Key:
[1] = tested on: Striped Cucumber Beetle Adults; test: Field trial, stomach poison test; format: in vivo; parameters: key: mortality rating on a 0 to 9 scale
Protocol: (§1) Leaves from the infested plant are treated with different concentrations of the test compounds, either by spraying with a DeVilbiss Special Atomizer (5004) at 10 psi or by dipping the leaves in solutions containing the compound. The leaves are then allowed to air dry.
(§2) After the leaves have dryed, they are placed in plastic petri dishes (100 × 25 mm), then the insects are counted out into each dish, five or ten insects per dish depending on the number of insects available. There are one or two replicates and usually two or three rates with each compound. Mortality results are taken at 24, 48 and 72 hours. The rating scale is 0 to 9.
(§3) Using the above methods, field trials were carried out against species of 5 orders of insects. The results, which are summarized in the following tables, give the average mortality for the particular insect with a given benzimidazole for each concentration employed. […] These tables contain all results obtained during the summer trials.

[2] = tested on: Red-Legged Grasshopper Adults; test: Field trial, contact poison test; format: in vivo
Description: (§4) Infested plants are placed in 6 oz. prescription bottles filled with water to keep them from wilting. Cellucotton is wrapped around the plant stem and squeezed into the bottle neck to prevent the insects from drowning.
(§5) A DeVilbiss Special Atomizer (5004) is used at 10 psi to spray the test plant with different concentrations of compounds. The atomizer is held at arm's length to prevent blowing the insects off the host plant. After treating, the bottles are placed on a table covered with brown wrapping paper to catch the dead insects as they drop from the plant. The plants are spaced so the leaves or plants are not touching one another.
(§6) The results are read at 24, 48, and 72 hours when applicable. The rating scale is 0 to 9 where 0 = 0-10 percent and 9 = 91-100 percent mortality.
as §3

[3] = tested on: Potato Flea Beetle Adults; test: Field trial, contact poison test; format: in vivo
Description: as §4, §5, §6, §3

Bean Leaf Beetle [4] = test: Field trial, contact poison test; format: in vivo
Description: as §4, §5, §6, §3

Picnic Beetle = test: Field trial (first summer), topical; format: in vivo; settings: .078125 μg/μl
Protocol: (§7) In a variation of the above test, 1 microliter of a test solution containing a predetermined number of micrograms of benzimidazole was applied directly to larvae or adult insects.
(§8) During the previous summer similar field trials were conducted employing the same tests as heretofore but with some additional species of insects not included in the later tests. The results listed below are for tests in which an insect mortality was established by a given application route and at a given concentration in a particular test. The same 0 - 9 scoring system is used as is the designation of compounds by alphabetical symbols.

Confused Flour Beetle = test: Field trial (first summer), topical; format: in vivo; settings: .078125 μg/μl
Protocol: as §7, §8

Yellow Mealworm Larvae = test: Field trial, topical application; format: in vivo; parameters: key: 0 = 0-10% mortality, 9 = 91-100% mortality (0-9 scale)
Protocol: as §6, §7, §3

Boll Weevil = test: Field trial (first summer), topical; format: in vivo, Anthonomus grandis; settings: .15625 μg/μl
Protocol: as §7, §8

[5] = tested on: Red-Legged Grasshopper Adults; test: Field trial, stomach poison test; format: in vivo
Protocol: as §1, §2, §3

[6] = tested on: Potato Flea Beetle Adults; test: Field trial, stomach poison test; format: in vivo
Protocol: as §1, §2, §3

Bean Leaf Beetle [7] = test: Field trial, stomach poison test; format: in vivo
Protocol: as §1, §2, §3

[8] = tested on: Southern Corn Rootworm Adults; test: Field trial, stomach poison test; format: in vivo; parameters: key: mortality rating on a 0 to 9 scale
Protocol: as §1, §2, §3

[9] = tested on: Tarnished Plant Bug Adults; test: Field trial, stomach poison test; format: in vivo; parameters: key: mortality rating on a 0 to 9 scale
Protocol: as §1, §2, §3

[10] = tested on: Unidentified Green Leafhopper; test: Field trial, stomach poison test; format: in vivo; parameters: key: mortality rating on a 0 to 9 scale
Protocol: as §1, §2, §3

[11] = tested on: Southern Corn Rootworm Adults; test: Field trial, contact poison test; format: in vivo
Description: as §4, §5, §6, §3

Citrus Rust Mite (CRM) = test: Miticide test, acute mortality, foliar spray; format: in vivo; settings: after 72 hours
Protocol: Citrus cuttings were obtained and prepared for testing within 24 hours prior to inoculation with citrus rust mites. To prepare the cuttings, terminals of branches 12 to 14 inches in length were cut from temple orange trees, immediately placed in tap water and taken into the laboratory. Uniform hardwood cuttings, 3 to 4 inches in length, were cut from the branches, all but one hardened leaf was removed from the cuttings, and the remaining leaf was wiped clean with a cotton pad soaked in 10% ethanol solution. Each cutting was immediately placed in tap water in a test tube with the closed leaf extending out of the test tube. Then, a ring of melted lanolin was applied around the petiole to prevent migration of mites from the leaf. One cutting was used for each replicate.
When the leaves were dry immediately after cleaning, citrus rust mites were transferred to the test leaves by cutting a heavily infested colony leaf (from a source colony maintained on citrus seedlings) into 20 to 22 sections (approximately 0.25 by 0.5 inches in size) and using forceps to place 1 section on each leaf cutting. As the section became desiccated the mites moved to the whole leaf and in 20 hours the sections were removed from the leaves for treatment application.
Treatments were applied within 24 hours after inoculation by removing the cuttings from the test tube and submerging the leaves in the treatment solution for 5 seconds by hand and immediately returning the cutting to the test tube. […]
(§9) The treated cuttings were stored in the greenhouse for 24 hours before evaluation under a binocular disecting microscope in the laboratory. In evaluating the results of the miticide test, each treated cutting was removed from the test tube, observed for live and dead mites at 14 × magnification, and returned immediately to the test tube. A scale of 0-9 was used as before.

Squash Bug Adults = test: Field trial, contact poison test; format: in vivo; parameters: key: 0-9 rating: 0 = 0-10% mortality, 9 = 91-100% mortality
Description: as §4, §5, §6, §3

Aphids - Sour Gum = test: Field trial, stomach poison test; format: in vivo
Protocol: as §1, §2, §3

Aphids - Apple = test: Field trial, stomach poison test; format: in vivo
Protocol: as §1, §2, §3

Aphids - Tulip Tree = test: Field trial, stomach poison test; format: in vivo
Protocol: as §1, §2, §3

Meadow Spittlebug = test: Field trial, stomach poison test; format: in vivo
Protocol: as §1, §2, §3

[12] = tested on: Two-Spotted Spider Mite (2-SSM); test: Miticide test, acute mortality, foliar spray; format: in vivo, Tetranychus urticae
Protocol: Each 5 mg. sample of technical compound preweighed at Greenfield was dissolved in 2.5 ml. of acetone and diluted with 247.5 ml. of water containing a combination of […]
as §9
The test employing two-spotted spider mites was conducted in similar fashion except that the mites were maintained on squash seedlings or squash cuttings.

SMILES: O=[N+]([O-])c1cc(C(F)(F)F)cc2nc(C(F)F)[nH]c12 [Q, 2-difluoromethyl-4-nitro-6-trifluoromethylbenzimidazole]
- average mortality rating ([1]; 10 ppm): 2
- average mortality rating ([1]; 25 ppm): 3
- average mortality rating ([1]; 50 ppm): 2
- average mortality rating ([1]; 100 ppm): 2
- average mortality rating ([2]; 10 ppm): 0 (0-10 percent)
- average mortality rating ([2]; 25 ppm): 4
- average mortality rating ([2]; 50 ppm): 5
- average mortality rating ([3]; 10 ppm): 3
- average mortality rating ([3]; 25 ppm): 6
- average mortality rating ([3]; 50 ppm): 8
- average mortality rating (Bean Leaf Beetle [4]; 25 ppm): 0 (0-10 percent)
- average mortality rating (Bean Leaf Beetle [4]; 50 ppm): 0 (0-10 percent)
- average mortality rating (Bean Leaf Beetle [4]; 100 ppm): 0 (0-10 percent)
- insect mortality rating (Picnic Beetle): 9 (91-100 percent mortality)
- insect mortality rating (Confused Flour Beetle): 7
- average mortality rating (Yellow Mealworm Larvae; 0.03 μg/μl): 1
- average mortality rating (Yellow Mealworm Larvae; 0.07 μg/μl): 4
- average mortality rating (Yellow Mealworm Larvae; 0.15 μg/μl): 7
- insect mortality rating (Boll Weevil): 5
- average mortality rating ([5]; 10 ppm): 1
- average mortality rating ([5]; 25 ppm): 1
- average mortality rating ([5]; 50 ppm): 5
- average mortality rating ([6]; 5 ppm): 0 (0-10 percent)
- average mortality rating ([6]; 10 ppm): 1
- average mortality rating ([6]; 25 ppm): 1
- average mortality rating ([6]; 50 ppm): 5
- average mortality rating (Bean Leaf Beetle [7]; 10 ppm): 0 (0-10 percent)
- average mortality rating (Bean Leaf Beetle [7]; 25 ppm): 0 (0-10 percent)
- average mortality rating (Bean Leaf Beetle [7]; 50 ppm): 0 (0-10 percent)

SMILES: CCOC(=O)n1c(C(F)(F)F)nc2c([N+](=O)[O-])cc(C(F)(F)F)cc21 [U, ethyl 4-nitro-2,6-bis(trifluoromethyl)benzimidazolecarboxylate]
- average mortality rating ([8]; 25 ppm): 5
- average mortality rating ([8]; 50 ppm): 3
- average mortality rating ([8]; 100 ppm): 3
- average mortality rating ([9]; 10 ppm): 0 (0-10 percent)
- average mortality rating ([9]; 25 ppm): 1
- average mortality rating ([9]; 50 ppm): 6
- average mortality rating ([1]; 10 ppm): 2
- average mortality rating ([1]; 25 ppm): 1
- average mortality rating ([1]; 50 ppm): 4
- average mortality rating ([1]; 100 ppm): 9 (91-100 percent mortality)
- average mortality rating ([10]; 10 ppm): 3
- average mortality rating ([10]; 25 ppm): 7
- average mortality rating ([10]; 50 ppm): 9 (91-100 percent mortality)
- average mortality rating ([2]; 25 ppm): 9 (91-100 percent mortality)
- average mortality rating ([2]; 50 ppm): 9 (91-100 percent mortality)
- average mortality rating ([11]; 25 ppm): 4
- average mortality rating ([11]; 50 ppm): 9 (91-100 percent mortality)
- average mortality rating ([11]; 100 ppm): 9 (91-100 percent mortality)
- acute mortality rating (Citrus Rust Mite (CRM); 6.25 ppm): 1
- acute mortality rating (Citrus Rust Mite (CRM); 12.5 ppm): 1
- acute mortality rating (Citrus Rust Mite (CRM); 25 ppm): 9 (91-100 percent mortality)
- acute mortality rating (Citrus Rust Mite (CRM); 50 ppm): 9 (91-100 percent mortality)
- acute mortality rating (Citrus Rust Mite (CRM); 100 ppm): 8
- average mortality rating (Yellow Mealworm Larvae; 0.03 μg/μl): 4
- average mortality rating (Yellow Mealworm Larvae; 0.07 μg/μl): 4
- average mortality rating (Yellow Mealworm Larvae; 0.15 μg/μl): 6
- average mortality rating (Squash Bug Adults; 125 ppm): 5
- average mortality rating (Squash Bug Adults; 250 ppm): 5
- average mortality rating (Squash Bug Adults; 500 ppm): 7
- average mortality rating (Squash Bug Adults; 750 ppm): 7
- average mortality rating (Aphids - Sour Gum; 25 ppm): 9 (91-100 percent mortality)
- average mortality rating (Aphids - Sour Gum; 50 ppm): 7
- average mortality rating (Aphids - Sour Gum; 100 ppm): 9 (91-100 percent mortality)
- average mortality rating (Aphids - Apple; 25 ppm): 2
- average mortality rating (Aphids - Apple; 50 ppm): 4
- average mortality rating (Aphids - Apple; 100 ppm): 6
- average mortality rating (Aphids - Tulip Tree; 25 ppm): 6
- average mortality rating (Aphids - Tulip Tree; 50 ppm): 8
- average mortality rating (Aphids - Tulip Tree; 100 ppm): 9 (91-100 percent mortality)
- average mortality rating (Meadow Spittlebug; 10 ppm): 5
- average mortality rating (Meadow Spittlebug; 25 ppm): 5
- average mortality rating (Meadow Spittlebug; 50 ppm): 3
- average mortality rating (Meadow Spittlebug; 100 ppm): 0 (0-10 percent)
- acute mortality rating ([12]; 6.25 ppm): 1
- acute mortality rating ([12]; 12.5 ppm): 3
- acute mortality rating ([12]; 25 ppm): 8
- acute mortality rating ([12]; 50 ppm): 8
- acute mortality rating ([12]; 100 ppm): 9 (91-100 percent mortality)
